Measurements reported in patent US10544106B2, “Certain chemical entities, compositions, and methods” (NeuPharma, Inc., priority 2016, dated 2020).

Biological target: BTK (Homo sapiens (Human), UniProt Q06187)
Assay: Z'-LYTE kinase inhibition assay against BTK
Format: biochemical
Settings: for inhibition at 0.1 µM: compound at 100 nM, ATP concentration at Km; for IC50: series of concentrations, GraphPad Prism 5
Procedure, shortened: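 Compounds were titrated over 10 points (3-fold steps, 1% DMSO) against BTK (1.04-10.4 ng) using Tyr 01 substrate at 2 μM and ATP at Km, pH 7.5 HEPES buffer with MgCl2 and EGTA. After one hour each of reaction and development at room temperature, fluorescence gave percent inhibition and IC50.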

Sequence of BTK (Q06187 whole entry): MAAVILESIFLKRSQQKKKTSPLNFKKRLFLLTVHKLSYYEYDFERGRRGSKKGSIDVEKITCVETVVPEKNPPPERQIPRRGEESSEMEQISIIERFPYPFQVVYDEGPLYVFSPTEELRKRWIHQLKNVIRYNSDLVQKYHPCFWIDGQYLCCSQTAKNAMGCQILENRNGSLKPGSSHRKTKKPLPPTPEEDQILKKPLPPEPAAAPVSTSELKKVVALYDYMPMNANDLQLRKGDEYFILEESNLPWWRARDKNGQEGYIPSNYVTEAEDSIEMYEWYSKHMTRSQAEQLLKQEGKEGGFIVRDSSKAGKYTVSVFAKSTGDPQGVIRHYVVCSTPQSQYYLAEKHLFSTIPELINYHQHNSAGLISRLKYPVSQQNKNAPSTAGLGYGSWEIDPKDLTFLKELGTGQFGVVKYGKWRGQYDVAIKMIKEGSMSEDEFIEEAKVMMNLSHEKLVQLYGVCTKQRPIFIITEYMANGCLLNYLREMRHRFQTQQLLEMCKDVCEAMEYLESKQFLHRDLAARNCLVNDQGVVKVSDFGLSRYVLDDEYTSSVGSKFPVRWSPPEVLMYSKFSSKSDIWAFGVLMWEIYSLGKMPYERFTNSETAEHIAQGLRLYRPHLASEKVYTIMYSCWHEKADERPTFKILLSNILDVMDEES

Compound	inhibition at 0.1 µM	IC50
C=CC(=O)Nc1cccc(-c2cc(-c3ccc(Oc4cc(C(F)(F)F)ccn4)cc3F)c(N)c3cncnc23)c1 [C187, N-(3-(5-amino-6-(2-fluoro-4-((4-(trifluoromethyl)pyridin-2-yl)oxy)phenyl)quinazolin-8-yl)phenyl)acrylamide]	< 50%	> 100 nM
C=CC(=O)Nc1cccc(-c2cc(-c3ccc(Oc4cc(C(F)(F)F)ccn4)cc3)c(N)c3cncnc23)c1 [C188, N-(3-(5-amino-6-(4-((4-(trifluoromethyl)pyridin-2-yl)oxy)phenyl)quinazolin-8-yl)phenyl)acrylamide]	< 50%	> 100 nM
C=CC(=O)Nc1cccc(-c2cc(-c3ccc(Oc4cc(C#N)ccn4)cc3F)cc3cncnc23)c1 [C189, N-(3-(6-(4-((4-cyanopyridin-2-yl)oxy)-2-fluorophenyl)quinazolin-8-yl)phenyl)acrylamide]	> 50%	< 100 nM
C=CC(=O)Nc1cccc(-c2cc(-c3ccc(C(=O)Nc4ccccn4)cc3Cl)c(N)c3cncnc23)c1 [C190, 4-(8-(3-acrylamidophenyl)-5-aminoquinazolin-6-yl)-3-chloro-N-(pyridin-2-yl)benzamide]	> 50%	< 100 nM
C=CC(=O)Nc1cccc(-c2cc(-c3ccc(Oc4cc(C(N)=O)ccn4)cc3)cc3cncnc23)c1 [C191, 2-(4-(8-(3-acrylamidophenyl)quinazolin-6-yl)phenoxy)isonicotinamide]	> 50%	< 100 nM
C=CC(=O)N1CCC(c2cc(-c3ccc(Oc4ccccc4)cc3)c(N)c3cncnc23)C1 (stereo not drawn) [C192, 1-(3-(5-amino-6-(4-phenoxyphenyl)quinazolin-8-yl)pyrrolidin-1-yl)prop-2-en-1-one]	< 50%	> 100 nM
C=CC(=O)N1CCC(c2cc(-c3ccc(Oc4cc(C(F)(F)F)ccn4)cc3)c(N)c3cncnc23)C1 (stereo not drawn) [C193, 1-(3-(5-amino-6-(4-((4-(trifluoromethyl)pyridin-2-yl)oxy)phenyl)quinazolin-8-yl)pyrrolidin-1-yl)prop-2-en-1-one]	< 50%	> 100 nM
C=CC(=O)Nc1cccc(-c2cc(-c3ccc(Oc4cc(C(N)=O)ccn4)cc3F)cc3cncnc23)c1 [C194, 2-(4-(8-(3-acrylamidophenyl)quinazolin-6-yl)-3-fluorophenoxy)isonicotinamide]	> 50%	< 100 nM
C=CC(=O)N1CCC(c2cc(-c3ccc(Oc4cc(C(F)(F)F)ccn4)cc3F)c(N)c3cncnc23)C1 (stereo not drawn) [C195, 1-(3-(5-amino-6-(2-fluoro-4-((4-(trifluoro-methyl)pyridin-2-yl)oxy)phenyl)quinazolin-8-yl)pyrrolidin-1-yl)prop-2-en-1-one]	< 50%	> 100 nM
C=CC(=O)Nc1cccc(-c2cc(-c3ccc(Oc4cc(C5CC5)ccn4)cc3F)cc3cncnc23)c1 [C198, N-(3-(6-(4-((4-cyclopropylpyridin-2-yl)oxy)-2-fluorophenyl)quinazolin-8-yl)phenyl)acrylamide]	> 50%	< 100 nM
C=CC(=O)Nc1cccc(-c2cc(-c3ccc(C(=O)Nc4cc(C5CC5)ccn4)cc3Cl)c(N)c3cncnc23)c1 [C200, 4-(8-(3-acrylamidophenyl)-5-aminoquinazolin-6-yl)-3-chloro-N-(4-cyclopropylpyridin-2-yl)benzamide]	> 50%	–
C=CC(=O)Nc1cccc(-c2cc(-c3ccc(C(=O)Nc4ccccn4)cc3C#N)cc3cncnc23)c1 [C201, 4-(8-(3-acrylamidophenyl)quinazolin-6-yl)-3-cyano-N-(pyridin-2-yl)benzamide]	> 50%	< 100 nM
C=CC(=O)Nc1cccc(-c2cc(-c3ccc(C(=O)Nc4cc(C5CC5)ccn4)cc3F)c(N)c3cncnc23)c1 [C202, 4-(8-(3-acrylamidophenyl)-5-aminoquinazolin-6-yl)-N-(4-cyclopropylpyridin-2-yl)-3-fluorobenzamide]	> 50%	–
C=CC(=O)Nc1cccc(-c2cc(-c3ccc(Oc4ccccn4)cc3Cl)c(N)c3cncnc23)c1 [C203, N-(3-(5-amino-6-(2-chloro-4-(pyridin-2-yloxy)phenyl)quinazolin-8-yl)phenyl)acrylamide]	> 50%	–
CC#CC(=O)N1CCC(c2nc(-c3ccc(C(=O)Nc4ccccn4)cc3)n3c(N)ncnc23)C1 (stereo not drawn) [C205, 4-(4-amino-8-(1-(but-2-ynoyl)pyrrolidin-3-yl)imidazo[1,5-a][1,3,5]triazin-6-yl)-N-(pyridin-2-yl)benzamide]	> 50%	–
C=CC(=O)N1CCC(c2nc(-c3ccc(Oc4cc(C(F)(F)F)ccn4)c(F)c3)n3c(N)nccc23)C1 (stereo not drawn) [C206, 1-(3-(5-amino-3-(3-fluoro-4-((4-(trifluoro-methyl)pyridin-2-yl)oxy)phenyl)imidazo[1,5-c]pyrimidin-1-yl)pyrrolidin-1-yl)prop-2-en-1-one]	> 50%	< 100 nM

Compound	inhibition at 0.1 µM	IC50
CC#CC(=O)N1CCC(c2nc(-c3ccc(Oc4cc(C(F)(F)F)ccn4)c(F)c3)n3c(N)nccc23)C1 (stereo not drawn) [C207, 1-(3-(5-amino-3-(3-fluoro-4-((4-(trifluoro-methyl)pyridin-2-yl)oxy)phenyl)imidazo[1,5-c]pyrimidin-1-yl)pyrrolidin-1-yl)but-2-yn-1-one]	> 50%	–
C=CC(=O)N1CCC(c2nc(-c3ccc(Oc4ccccn4)c(F)c3)n3c(N)nccc23)C1 (stereo not drawn) [C208, 1-(3-(5-amino-3-(3-fluoro-4-(pyridin-2-yloxy)phenyl)imidazo[1,5-c]pyrimidin-1-yl)pyrrolidin-1-yl)prop-2-en-1-one]	> 50%	< 100 nM
CC#CC(=O)N1CCC(c2nc(-c3ccc(Oc4ccccn4)c(F)c3)n3c(N)nccc23)C1 (stereo not drawn) [C209, 1-(3-(5-amino-3-(3-fluoro-4-(pyridin-2-yloxy)phenyl)imidazo[1,5-c]pyrimidin-1-yl)pyrrolidin-1-yl)but-2-yn-1-one]	> 50%	–
C=CC(=O)Nc1cccc(-c2cc(-c3ccc(C(=O)Nc4ncccc4F)cc3)c(N)c3cncnc23)c1 [C211, 4-(8-(3-acrylamidophenyl)-5-aminoquinazolin-6-yl)-N-(3-fluoropyridin-2-yl)benzamide]	< 50%	–
C=CC(=O)N1CCC(c2nc(-c3ccc(Oc4ccccn4)c(OC)c3)n3c(N)nccc23)C1 (stereo not drawn) [C212, 1-(3-(5-amino-3-(3-methoxy-4-(pyridin-2-yloxy)phenyl)imidazo[1,5-c]pyrimidin-1-yl)pyrrolidin-1-yl)prop-2-en-1-one]	> 50%	< 100 nM
CC#CC(=O)N1CCC(c2nc(-c3ccc(Oc4ccccn4)c(OC)c3)n3c(N)nccc23)C1 (stereo not drawn) [C213, 1-(3-(5-amino-3-(3-methoxy-4-(pyridin-2-yloxy)phenyl)imidazo[1,5-c]pyrimidin-1-yl)pyrrolidin-1-yl)but-2-yn-1-one]	> 50%	–
CC#CC(=O)N1CCC(c2nc(-c3ccc(Oc4cc(OC)ccn4)cc3)n3c(N)nccc23)C1 (stereo not drawn) [C214, 1-(3-(5-amino-3-(4-((4-methoxypyridin-2-yl)oxy)phenyl)imidazo[1,5-c]pyrimidin-1-yl)pyrrolidin-1-yl)but-2-yn-1-one]	> 50%	–
C=CC(=O)N1CCC(c2cc(-c3ccc(C(=O)Nc4ncccc4F)cc3)c(N)c3cncnc23)C1 (stereo not drawn) [C215, 4-(8-(1-acryloylpyrrolidin-3-yl)-5-amino-quinazolin-6-yl)-N-(3-fluoropyridin-2-yl)benzamide]	< 50%	–
C=CC(=O)N1CCC(c2nc(-c3ccc(Oc4cc(OC)ccn4)c(F)c3)n3c(N)nccc23)C1 (stereo not drawn) [C216, 1-(3-(5-amino-3-(3-fluoro-4-((4-methoxy-pyridin-2-yl)oxy)phenyl)imidazo[1,5-c]pyrimidin-1-yl)pyrrolidin-1-yl)prop-2-en-1-one]	> 50%	< 100 nM
C=CC(=O)Nc1cccc(-c2cc(-c3ccc(C(=O)Nc4ncccc4F)cc3Cl)c(N)c3cncnc23)c1 [C217, 4-(8-(3-acrylamidophenyl)-5-aminoquinazolin-6-yl)-3-chloro-N-(3-fluoropyridin-2-yl)benzamide]	> 50%	–
C=CC(=O)N1CCC(c2nc(-c3ccc(Oc4ncccc4C(F)(F)F)cc3)n3c(N)nccc23)C1 (stereo not drawn) [C218, 1-(3-(5-amino-3-(4-((3-(trifluoro-methyl)pyridin-2-yl)oxy)phenyl)imidazo[1,5-c]pyrimidin-1-yl)pyrrolidin-1-yl)prop-2-en-1-one]	> 50%	< 100 nM
CC#CC(=O)N1CCC(c2nc(-c3ccc(Oc4ncccc4C(F)(F)F)cc3)n3c(N)nccc23)C1 (stereo not drawn) [C219, 1-(3-(5-amino-3-(4-((3-(trifluoromethyl)pyridin-2-yl)oxy)phenyl)imidazo[1,5-c]pyrimidin-1-yl)pyrrolidin-1-yl)but-2-yn-1-one]	< 50%	–
C=CC(=O)Nc1cccc(-c2nc(-c3ccc(Oc4ncccc4C(F)(F)F)cc3)n3c(N)nccc23)c1 [C220, N-(3-(5-amino-3-(4-((3-(trifluoromethyl)pyridin-2-yl)oxy)phenyl)imidazo[1,5-c]pyrimidin-1-yl)phenyl)acrylamide]	> 50%	–
C=CC(=O)N1CCC(c2nc(-c3ccc(Oc4cc(C(F)(F)F)ccn4)c(OC)c3)n3c(N)nccc23)C1 (stereo not drawn) [C221, 1-(3-(5-amino-3-(3-methoxy-4-((4-(trifluoro-methyl)pyridin-2-yl)oxy)phenyl)imidazo[1,5-c]pyrimidin-1-yl)pyrrolidin-1-yl)prop-2-en-1-one]	> 50%	–
CC#CC(=O)N1CCC(c2nc(-c3ccc(Oc4cc(C(F)(F)F)ccn4)c(OC)c3)n3c(N)nccc23)C1 (stereo not drawn) [C222, 1-(3-(5-amino-3-(3-methoxy-4-((4-(trifluoro-methyl)pyridin-2-yl)oxy)phenyl)imidazo[1,5-c]pyrimidin-1-yl)pyrrolidin-1-yl)but-2-yn-1-one]	> 50%	–
C=CC(=O)N1CCC(c2nc(-c3ccc(Oc4ncccc4C(F)(F)F)c(F)c3)n3c(N)nccc23)C1 (stereo not drawn) [C223, 1-(3-(5-amino-3-(3-fluoro-4-((3-(trifluoro-methyl)pyridin-2-yl)oxy)phenyl)imidazo[1,5-c]pyrimidin-1-yl)pyrrolidin-1-yl)prop-2-en-1-one]	> 50%	–
